# Laboratory results as given in patent US11795200B2, “Nano small peptide and its use in preparation of drugs for treating and preventing fundus vascular diseases” (FUTU Biotech Co., Ltd., priority 2021, dated 2023).
# Non-standard residues stand in square brackets, D forms with d. Residues, ends and D or L forms follow the SMILES beside them. No end group written: not given here. *: point of attachment. Palmitoyl = CCCCCCCCCCCCCCCC(=O)*
# How the values were obtained:
# sSema4D = target: T1, sSema4D (Mus musculus, UniProt O09126); assay: Reduction of sSema4D concentration in endothelial cell culture medium (ELISA); format: cell-based; conditions: for sSema4D concentration: medium with 1600 ng/mL sSema4D, FH 20 μM, BMA-12 2 μg/μL; for sustained reduction of sSema4D concentration: added to endothelial cells, 12 to 48 h
# T1 construct: the free Sema4D protein after enzyme cleavage of Sema4D; purchased R&D Systems
# T1 sequence (O09126 24-733): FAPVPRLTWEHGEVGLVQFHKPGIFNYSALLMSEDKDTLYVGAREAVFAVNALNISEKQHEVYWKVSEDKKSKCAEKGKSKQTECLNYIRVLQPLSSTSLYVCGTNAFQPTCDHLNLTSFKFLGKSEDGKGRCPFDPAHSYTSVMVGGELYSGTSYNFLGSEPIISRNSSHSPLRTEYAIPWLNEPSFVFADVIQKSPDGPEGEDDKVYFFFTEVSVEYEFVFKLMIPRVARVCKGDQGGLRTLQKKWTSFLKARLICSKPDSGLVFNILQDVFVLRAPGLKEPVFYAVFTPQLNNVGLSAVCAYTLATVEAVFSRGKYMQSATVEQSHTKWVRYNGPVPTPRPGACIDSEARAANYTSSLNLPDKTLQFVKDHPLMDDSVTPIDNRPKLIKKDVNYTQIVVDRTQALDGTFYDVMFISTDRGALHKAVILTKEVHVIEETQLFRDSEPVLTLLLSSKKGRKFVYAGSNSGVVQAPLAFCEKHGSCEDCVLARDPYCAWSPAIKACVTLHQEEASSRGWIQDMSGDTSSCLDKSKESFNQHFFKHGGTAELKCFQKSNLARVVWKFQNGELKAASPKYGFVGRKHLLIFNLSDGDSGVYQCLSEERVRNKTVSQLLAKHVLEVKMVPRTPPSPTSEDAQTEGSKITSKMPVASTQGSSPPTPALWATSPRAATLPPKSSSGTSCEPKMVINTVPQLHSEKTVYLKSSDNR
# Description: Endothelial cells were uniformly seeded in 6-well cell culture plates and cultured in a 5% CO2 incubator at 37° C. for 24 h. The nano small peptides FH, FG, DMSO, and Sema4D neutralizing antibody (BMA-12) were added to the medium (the concentration of sSema4D in the medium was 1600 ng/mL) to ensure that the final concentration of FH and FG was 20 μM, and the final concentration of the sSema4D neutralizing antibody (BMA-12) was 2 μg/μL, an equal volume of DMSO was then added as a control, and the culture plates were cultured in an incubator for 12, 24, 36, and 48 h, respectively. The cell culture medium was then collected and centrifuged. The supernatant was taken and the expression of Sema4D protein in the supernatant was detected using an ELISA kit (Shanghai Yuanmu Biotechnology Co., Ltd.).
# OIR model mice [1] = assay: Fundus angiogenesis in OIR model (Isolectin B4, confocal); format: in vivo, mouse; conditions: for percentage of abnormal blood vessels in the total retinal area: 2 nmol injected into the vitreous on day 12, read on day 17; for treatment effect on fundus angiogenesis compared with BMA-12: 2 nmol vs 1 μg BMA-12, intravitreal
# Description: Treatment group (OIR): After giving birth, 3-4 month old C57BL/6 mother mice were placed in an oxygen chamber with 75% oxygen together with 7 day old young mice, and the young mice and the mother mice were taken out on the 12th day of birth of the young mice. Immediately after the young mice were anesthetized, 2 nmol of FH, 2 nmol of FG, and 1 μg of Sema4D neutralizing antibody (BMA-12) (BMA-12, i.e., anti-Sema4D) were injected into the vitreous, and an equal volume of DMSO was used as a control. The young mice were then further raised in normal air for 5 days; the young mice were anesthetized on the 17th day of birth, and after cardiac perfusion with normal saline, the eyeballs were separated and then fixed, stained with Isolectin B4 overnight at 4° C., flatly spread on a glass slide, and photographed.
# Control group (Normal): Young mice, grown with normoxia, were anesthetized on the 17th day of birth. After cardiac perfusion with normal saline, the eyeballs were taken out, and the retinas were peeled off and then fixed with 4% paraformaldehyde, stained with Isolectin B4 at 4° C. overnight, flatly spread on a glass slide, and photographed
# Laser confocal was carried out to detect retinal angiogenesis, and ImageJ was carried out to calculate the ratio of retinal neovascularization clusters to the entire retinal area, that is, the proportion of new blood vessels. […] It can be seen in FIG. 4A that the treatment effect of FH is the best.
# OIR model mice [2] = assay: Evans blue leakage test, fundus vascular leakage; format: in vivo, mouse; conditions: for vascular leakage of the fundus: 2 nmol injected into the vitreous; for treatment effect on vascular leakage compared with anti-Sema4D: 2 nmol vs 1 μg BMA-12, intravitreal
# [3] = system: primary mouse brain microvascular endothelial cells; assay: sSema4D-induced endothelial cell migration (transwell experiment); format: cell-based; conditions: 24 h; for inhibition of endothelial cell migration compared with BMA-12: 20 μM vs BMA-12 2 μg/μL; for sSema4D-induced endothelial cell migration: 20 μM, sSema4D 1600 ng/mL
# Description: The primary mouse brain microvascular endothelial cells were starved with 0.5% ECM for 4 to 6 h. The mouse brain microvascular endothelial cells were seeded in the upper layer of a 24-well transwell chamber ([…]). 1% ECM medium containing FH (20 μM), FG (20 μM), and Sema4D neutralizing antibody (BMA-12) (2 μg/μL) (the concentration of sSema4D in the medium is 1600 ng/mL) was added to the lower chamber, and an equal volume of DMSO was added as control. The cells were incubated in a 5% CO2 incubator at 37° C. for 24 h. 24 h later, the cells on the bottom of the chamber were fixed with 4% paraformaldehyde and stained with crystal violet, and the endothelial cells that penetrated to the bottom of the chamber were counted under a microscope.
# [4] = system: mouse brain microvascular endothelial cells; assay: sSema4D-induced endothelial cell leakage (transmembrane resistance); format: cell-based; conditions: 36 h; for effect on endothelial cell leakage compared with BMA-12: 20 μM vs BMA-12 2 μg/μL; for sSema4D-induced endothelial cell leakage: 20 μM, sSema4D 1600 ng/mL
# Description: A layer of fibronectin was first applied to coat the upper layer of a 24-well transwell chamber (0.4 um) and incubated at room temperature for 1 h; after coating, the mouse brain microvascular endothelial cells were seeded, and cultured for 5 days until the cells were full, and then FH (20 μM), FG (20 μM), and Sema4D neutralizing antibody (BMA-12) (2 μg/μL) were added to the medium (the concentration of sSema4D in the medium was 1600 ng/mL), respectively. An equal volume of DMSO was added as a control, and ECM was used as a blank control. After incubation for 36 h, the resistance value was measured by a cell transmembrane resistance measuring instrument.
"sSema4D concentration (sSema4D; 24 h, endothelial cells)","effect on sSema4D concentration, FH compared with FG (sSema4D; endothelial cells, within the same action time, 20 μM)",Compound,"sSema4D concentration (sSema4D; 36 h, endothelial cells)",sustained reduction of sSema4D concentration (sSema4D; 20 μM),percentage of abnormal blood vessels in the total retinal area (OIR model mice [1]),treatment effect among groups in FIG. 4A (OIR model mice [1]; 2 nmol intravitreal),treatment effect on fundus angiogenesis compared with BMA-12 (OIR model mice [1]),vascular leakage of the fundus (OIR model mice [2]),treatment effect on vascular leakage compared with anti-Sema4D (OIR model mice [2]),inhibition of endothelial cell migration compared with BMA-12 [3],sSema4D-induced endothelial cell migration [3],effect on endothelial cell leakage compared with BMA-12 [4],sSema4D-induced endothelial cell leakage [4]
can reduce the sSema4D concentration,better than that of FG,CCCCCCCCCCCCCCCC(=O)N[C@H](Cc1ccccc1)C(=O)N[C@@H](Cc1ccccc1)C(=O)N[C@H](C(=O)N[C@@H](CC(C)C)C(=O)N[C@@H](CCCCN)C(=O)N[C@@H](CCCCN)C(=O)N[C@@H](CCC(N)=O)C(=O)N[C@@H](CCCCN)C(=O)N[C@@H](CCCNC(=N)N)C(=O)N1CCC[C@H]1C(=O)N[C@@H](CCCNC(=N)N)C(=O)N[C@@H](Cc1c[nH]cn1)C(=O)O)C(C)C [FH] (Palmitoyl-[dF]FVLKKQKRPRH-OH),can still reduce the sSema4D concentration,can sustainably reduce the concentration of sSema4D,reduce the percentage of abnormal blood vessels in the total retinal area,the best,comparable to that of the Sema4D neutralizing antibody (BMA-12),can inhibit vascular leakage of the fundus,comparable to that of anti-Sema4D,more effective in inhibiting endothelial cell migration than Sema4D neutralizing antibody (BMA-12),can significantly inhibit the sSema4D-induced endothelial cell migration,comparable to that of Sema4D neutralizing antibody (BMA-12),can significantly inhibit sSema4D-induced endothelial cell leakage
–,–,Palmitoyl-FFVLKKNKAAKG [FG],–,can sustainably reduce the concentration of sSema4D,reduce the percentage of abnormal blood vessels in the total retinal area,–,comparable to that of the Sema4D neutralizing antibody (BMA-12),can inhibit vascular leakage of the fundus,comparable to that of anti-Sema4D,more effective in inhibiting endothelial cell migration than Sema4D neutralizing antibody (BMA-12),can significantly inhibit the sSema4D-induced endothelial cell migration,comparable to that of Sema4D neutralizing antibody (BMA-12),can significantly inhibit sSema4D-induced endothelial cell leakage
